System: HCV genotype 1b replicon
Assay: HCV replicon assay (1b_Huh-Luc/Neo-ET cell line, luciferase readout)
Type: cell-based
Details: Hepatitis C virus, Huh-7, 72 h, read-out: Inhibition of HCV genotype 1b
Procedure, shortened: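 1b_Huh-Luc/Neo-ET Huh 7 cells carrying a bicistronic genotype 1b replicon; compounds added in triplicate the day after plating, 72 h incubation, then Bright-Glo luciferase read-out. Signal expressed as % of control; EC50 from curve fit, repeated several times.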

Q: `COC(=O)N[C@H](C(=O)N1CCC[C@H]1c1ncc(-c2ccc(-c3nc4ccc(-c5cnc([C@@H]6CCCN6C(=O)[C@@H](NC(=O)OC)C(C)C)[nH]5)cc4s3)cc2)[nH]1)C(C)C` [compound 229] was tested. Which EC50 did it give?
A: The EC50 was under 1 nM.

Q: `COC(=O)N[C@@H](C(=O)N1CCC[C@H]1c1ncc(-c2ccc(-c3nc4ccc(-c5cnc([C@@H]6CCCN6C(=O)[C@H](NC(=O)OC)c6ccccc6)[nH]5)cc4s3)cc2)[nH]1)c1ccccc1` [compound 230] was tested. Which EC50 did it give?
A: The EC50 was under 1 nM.

Q: Which EC50 does the source give for `COC(=O)N[C@H](C(=O)N1CCC[C@H]1c1ncc(-c2ccc(-c3nc4ccc(-c5cnc([C@@H]6CCCN6C(=O)[C@@H](NC(=O)OC)C(C)C)[nH]5)cc4n3C)cc2)[nH]1)C(C)C` [compound 231] here?
A: The EC50 was under 1 nM.

Q: With `COC(=O)N[C@H](C(=O)N1CCC[C@H]1c1ncc(-c2ccc(-c3nc4cc(-c5cnc([C@@H]6CCCN6C(=O)[C@@H](NC(=O)OC)C(C)C)[nH]5)ccc4n3C)cc2)[nH]1)C(C)C` [compound 232] as the molecule, how does the EC50 read?
A: The EC50 was under 1 nM.

Q: How did the EC50 turn out when `COC(=O)N[C@@H](C(=O)N1CCC[C@H]1c1ncc(-c2ccc(-c3nc4cc(-c5cnc([C@@H]6CCCN6C(=O)[C@H](NC(=O)OC)c6ccccc6)[nH]5)ccc4n3C)cc2)[nH]1)c1ccccc1` [compound 233] was run?
A: The EC50 was under 1 nM.

Q: Which EC50 does the source give for `COC(=O)N[C@H](C(=O)N1CCC[C@H]1c1ncc(-c2ccc(-c3nc4ccc(-c5cnc([C@@H]6CCCN6C(=O)[C@@H](NC(=O)OC)C(C)C)[nH]5)cc4o3)cc2)[nH]1)C(C)C` [compound 234] here?
A: Its EC50 is under 1 nM.

Q: For `COC(=O)N[C@@H](C(=O)N1CCC[C@H]1c1ncc(-c2ccc(-c3nc4ccc(-c5cnc([C@@H]6CCCN6C(=O)[C@H](NC(=O)OC)c6ccccc6)[nH]5)cc4o3)cc2)[nH]1)c1ccccc1` [compound 235], which EC50 is on record?
A: Its EC50 is under 1 nM.

Q: Which EC50 does the source give for `COC(=O)N[C@H](C(=O)N1CCC[C@H]1c1ncc(-c2ccc(-c3nc4cc(-c5cnc([C@@H]6CCCN6C(=O)[C@@H](NC(=O)OC)C(C)C)[nH]5)ccc4o3)cc2)[nH]1)C(C)C` [compound 236] here?
A: Its EC50 is under 1 nM.

Q: Which EC50 does the source give for `COC(=O)N[C@@H](C(=O)N1CCC[C@H]1c1ncc(-c2ccc(-c3nc4cc(-c5cnc([C@@H]6CCCN6C(=O)[C@H](NC(=O)OC)c6ccccc6)[nH]5)ccc4o3)cc2)[nH]1)c1ccccc1` [compound 237] here?
A: Its EC50 is under 1 nM.

Q: With `COC(=O)N[C@H](C(=O)N1CCC[C@H]1c1ncc(-c2ccc(-c3nc4cc(-c5cnc([C@@H]6CCCN6C(=O)[C@@H](NC(=O)OC)[C@@H](C)OC)[nH]5)ccc4o3)cc2)[nH]1)[C@@H](C)OC` [compound 238] as the molecule, how does the EC50 read?
A: Its EC50 is under 1 nM.

Q: How did the EC50 turn out when `COC(=O)N[C@H](C(=O)N1CCC[C@H]1c1ncc(-c2ccc(-c3nc4cc(-c5cnc([C@@H]6CCCN6C(=O)[C@@H](NC(=O)OC)C6CC6)[nH]5)ccc4o3)cc2)[nH]1)C1CC1` [compound 239] was run?
A: Its EC50 is under 1 nM.

Q: Which EC50 does the source give for `COC(=O)N[C@H](C(=O)N1CCC[C@H]1c1ncc(-c2ccc(-c3nc4cc(-c5cnc([C@@H]6CCCN6C(=O)[C@@H](NC(=O)OC)C(C)C)[nH]5)ccc4s3)cc2)[nH]1)C(C)C` [compound 240] here?
A: Its EC50 is under 1 nM.

Q: How did the EC50 turn out when `COC(=O)N[C@H](C(=O)N1CCC[C@H]1c1ncc(-c2ccc(-c3nc4ccc(-c5cnc([C@@H]6CCCN6C(=O)[C@H](NC(=O)OC)c6ccccc6)[nH]5)cc4s3)cc2)[nH]1)C(C)C` [compound 241] was run?
A: The EC50 was under 1 nM.

Q: `COC(=O)N[C@H](C(=O)N1CCC[C@H]1c1ncc(-c2ccc(-c3nc4ccc(-c5cnc([C@@H]6CCCN6C(=O)[C@H](NC(=O)OC(C)(C)C)c6ccccc6)[nH]5)cc4s3)cc2)[nH]1)C(C)C` [compound 242] was tested. Which EC50 did it give?
A: Its EC50 is under 1 nM.

Q: For `COC(=O)N[C@H](C(=O)N1CCCC[C@H]1c1ncc(-c2ccc(-c3nc4ccc(-c5cnc([C@@H]6CCCCN6C(=O)[C@@H](NC(=O)OC)C(C)C)[nH]5)cc4s3)cc2)[nH]1)C(C)C` [compound 243], which EC50 is on record?
A: Its EC50 is under 1 nM.

Q: For `CCNC(=O)N[C@@H](C(=O)N1CCC[C@H]1c1ncc(-c2ccc3nc(-c4ccc(-c5cnc([C@@H]6CCCN6C(=O)[C@@H](NC(=O)OC)C(C)C)[nH]5)cc4)sc3c2)[nH]1)c1ccccc1` [compound 244], which EC50 is on record?
A: The EC50 was under 1 nM.

Q: Which EC50 does the source give for `CNC(=O)N[C@@H](C(=O)N1CCC[C@H]1c1ncc(-c2ccc3nc(-c4ccc(-c5cnc([C@@H]6CCCN6C(=O)[C@@H](NC(=O)OC)C(C)C)[nH]5)cc4)sc3c2)[nH]1)c1ccccc1` [compound 245] here?
A: Its EC50 is under 1 nM.

Q: With `COC(=O)N[C@H](C(=O)N1CCC[C@H]1c1ncc(-c2ccc(-c3nc4ccc(-c5cnc([C@@H]6CCCN6C(=O)OCc6ccccc6)[nH]5)cc4s3)cc2)[nH]1)C(C)C` [compound 246] as the molecule, how does the EC50 read?
A: Its EC50 is under 1 nM.

Q: With `COC(=O)N[C@H](C(=O)N1CCC[C@H]1c1ncc(-c2ccc(-c3nc4ccc(-c5cnc([C@@H]6CCCN6C(=O)[C@H](NC(=O)OC(C)(C)C)c6ccccc6)[nH]5)cc4o3)cc2)[nH]1)C(C)C` [compound 247] as the molecule, how does the EC50 read?
A: Its EC50 is under 1 nM.

Q: `COC(=O)N[C@@H](C(=O)N1CCCC[C@H]1c1ncc(-c2ccc(-c3nc4ccc(-c5cnc([C@@H]6CCCCN6C(=O)[C@H](NC(=O)OC)c6ccccc6)[nH]5)cc4s3)cc2)[nH]1)c1ccccc1` [compound 248] was tested. Which EC50 did it give?
A: Its EC50 is under 1 nM.

Q: How did the EC50 turn out when `COC(=O)N[C@H](C(=O)N1CCC[C@H]1c1ncc(-c2ccc(-c3nc4ccc(-c5cnc([C@@H]6CCCN6C(=O)[C@H](NC(=O)OC)c6ccccc6)[nH]5)cc4o3)cc2)[nH]1)C(C)C` [compound 249] was run?
A: Its EC50 is under 1 nM.

Q: With `CC(C)(C)OC(=O)N1CCCC1c1ncc(-c2ccc(-c3nc4cc(-c5cnc([C@@H]6CCCN6C(=O)OCc6ccccc6)[nH]5)ccc4s3)cc2)[nH]1` (stereo partly drawn) [compound 250] as the molecule, how does the EC50 read?
A: Its EC50 is 10 to 999 nM.

Q: How did the EC50 turn out when `CNC(=O)N[C@@H](C(=O)N1CCC[C@H]1c1ncc(-c2ccc3nc(-c4ccc(-c5cnc([C@@H]6CCCN6C(=O)[C@@H](NC(=O)OC)C(C)C)[nH]5)cc4)oc3c2)[nH]1)c1ccccc1` [compound 251] was run?
A: Its EC50 is under 1 nM.

Q: For `CCNC(=O)N[C@@H](C(=O)N1CCC[C@H]1c1ncc(-c2ccc3nc(-c4ccc(-c5cnc([C@@H]6CCCN6C(=O)[C@@H](NC(=O)OC)C(C)C)[nH]5)cc4)oc3c2)[nH]1)c1ccccc1` [compound 252], which EC50 is on record?
A: The EC50 was under 1 nM.

Q: For `COC(=O)N[C@H](C(=O)N1CCC[C@H]1c1ncc(-c2ccc(-c3nc4ccc(-c5cnc([C@@H]6CCCN6C(=O)[C@@H](NC(=O)OC)[C@@H](C)OC)[nH]5)cc4o3)cc2)[nH]1)C(C)C` [compound 253], which EC50 is on record?
A: The EC50 was under 1 nM.

Q: `COC(=O)N[C@H](C(=O)N1CCC[C@H]1c1ncc(-c2ccc3nc(-c4ccc(-c5cnc([C@@H]6CCCN6C(=O)[C@H](NC(=O)OC(C)(C)C)c6ccccc6)[nH]5)cc4)oc3c2)[nH]1)C(C)C` [compound 254] was tested. Which EC50 did it give?
A: The EC50 was under 1 nM.

Q: `COC(=O)N[C@H](C(=O)N1CCC[C@H]1c1ncc(-c2ccc3nc(-c4ccc(-c5cnc([C@@H]6CCCN6C(=O)[C@H](NC(=O)OC)c6ccccc6)[nH]5)cc4)oc3c2)[nH]1)C(C)C` [compound 255] was tested. Which EC50 did it give?
A: The EC50 was under 1 nM.

Q: How did the EC50 turn out when `CNC(=O)N[C@@H](C(=O)N1CCC[C@H]1c1ncc(-c2ccc(-c3nc4ccc(-c5cnc([C@@H]6CCCN6C(=O)[C@@H](NC(=O)OC)C(C)C)[nH]5)cc4o3)cc2)[nH]1)c1ccccc1` [compound 256] was run?
A: The EC50 was under 1 nM.

Q: How did the EC50 turn out when `CCNC(=O)N[C@@H](C(=O)N1CCC[C@H]1c1ncc(-c2ccc(-c3nc4ccc(-c5cnc([C@@H]6CCCN6C(=O)[C@@H](NC(=O)OC)C(C)C)[nH]5)cc4o3)cc2)[nH]1)c1ccccc1` [compound 257] was run?
A: Its EC50 is under 1 nM.

Q: With `COC(=O)N[C@H](C(=O)N1CCC[C@H]1c1ncc(-c2ccc(-c3ccc4nc(-c5cnc([C@@H]6CCCN6C(=O)[C@@H](NC(=O)OC)C(C)C)[nH]5)sc4c3)cc2)[nH]1)C(C)C` [compound 258] as the molecule, how does the EC50 read?
A: Its EC50 is under 1 nM.

Q: How did the EC50 turn out when `COC(=O)N[C@H](C(=O)N1CCC[C@H]1c1ncc(-c2ccc3oc(-c4ccc(-c5cnc([C@@H]6CCCN6C(=O)[C@@H](NC(=O)OC)C6CCOCC6)[nH]5)cc4)nc3c2)[nH]1)C(C)C` [compound 259] was run?
A: Its EC50 is under 1 nM.

Q: How did the EC50 turn out when `COC(=O)N[C@H](C(=O)N1CCC[C@H]1c1ncc(-c2ccc3oc(-c4ccc(-c5cnc([C@@H]6CCCN6C(=O)[C@H](NC(=O)OC)c6ccccc6)[nH]5)cc4)nc3c2)[nH]1)C(C)C` [compound 260] was run?
A: Its EC50 is under 1 nM.

Q: How did the EC50 turn out when `COC(=O)N[C@H](C(=O)N1CCC[C@H]1c1ncc(-c2ccc3ccc(C45CCC(c6cnc([C@@H]7CCCN7C(=O)[C@@H](NC(=O)OC)C(C)C)[nH]6)(CC4)CC5)cc3c2)[nH]1)C(C)C` [compound 261] was run?
A: The EC50 was 1 to 9.9 nM.

Q: With `COC(=O)N[C@H](C(=O)N1CCC[C@H]1c1nc(-c2ccc3nc(C45CCC(c6cnc([C@@H]7CCCN7C(=O)[C@@H](NC(=O)OC)C(C)C)[nH]6)(CC4)CC5)ccc3c2)c[nH]1)C(C)C` [compound 262] as the molecule, how does the EC50 read?
A: The EC50 was under 1 nM.

Q: How did the EC50 turn out when `COC(=O)N[C@@H](C(=O)N1CCC[C@H]1c1nc(-c2ccc3nc(C45CCC(c6cnc([C@@H]7CCCN7C(=O)[C@H](NC(=O)OC)c7ccccc7)[nH]6)(CC4)CC5)ccc3c2)c[nH]1)c1ccccc1` [compound 263] was run?
A: The EC50 was under 1 nM.

Q: With `CN(C)[C@@H](C(=O)N1CCC[C@H]1c1nc(-c2ccc3nc(C45CCC(c6cnc([C@@H]7CCCN7C(=O)[C@@H](c7ccccc7)N(C)C)[nH]6)(CC4)CC5)ccc3c2)c[nH]1)c1ccccc1` [compound 264] as the molecule, how does the EC50 read?
A: The EC50 was 1 to 9.9 nM.

Q: `COC(=O)N[C@H](C(=O)N1CCC[C@H]1c1nc(-c2ccc3nc(C45CCC(c6cnc([C@@H]7CCCN7C(=O)[C@@H](NC(=O)OC)C7CC7)[nH]6)(CC4)CC5)ccc3c2)c[nH]1)C1CC1` [compound 265] was tested. Which EC50 did it give?
A: The EC50 was under 1 nM.

Q: `COC(=O)N[C@@H](C)C(=O)N1CCC[C@H]1c1nc(-c2ccc3nc(C45CCC(c6cnc([C@@H]7CCCN7C(=O)[C@H](C)NC(=O)OC)[nH]6)(CC4)CC5)ccc3c2)c[nH]1` [compound 266] was tested. Which EC50 did it give?
A: The EC50 was under 1 nM.

Q: For `c1cc2nc(C34CCC(c5cnc([C@@H]6CCCN6)[nH]5)(CC3)CC4)ccc2cc1-c1c[nH]c([C@@H]2CCCN2)n1` [compound 267], which EC50 is on record?
A: Its EC50 is over 1000 nM.

Q: Which EC50 does the source give for `CC(C)(C)OC(=O)N1CCCC1c1ncc(C23CCC(c4ccc5cc(-c6c[nH]c([C@@H]7CCCN7C(=O)OC(C)(C)C)n6)ccc5n4)(CC2)CC3)[nH]1` (stereo partly drawn) [compound 268] here?
A: Its EC50 is 10 to 999 nM.

Q: Which EC50 does the source give for `COC(=O)N[C@H](C(=O)N1CCC[C@H]1c1nc(-c2ccc3c(c2)CCN(c2c(F)cc(-c4cnc([C@@H]5CCCN5C(=O)[C@@H](NC(=O)OC)C(C)C)[nH]4)cc2F)C3)c[nH]1)C(C)C` [compound 269] here?
A: Its EC50 is under 1 nM.

Q: For `COC(=O)N[C@@H](C(=O)N1CCC[C@H]1c1nc(-c2ccc3c(c2)CCN(c2c(F)cc(-c4cnc([C@@H]5CCCN5C(=O)[C@H](NC(=O)OC)c5ccccc5)[nH]4)cc2F)C3)c[nH]1)c1ccccc1` [compound 270], which EC50 is on record?
A: The EC50 was under 1 nM.
